Assay results taken from article PMC9444293 (Investigative Radiology, 2022).
Read-outs that look alike come from different tables or passages of the source. Marks after values point to notes of the source that are not given here.

How the values were obtained:
[1] = market formulation; ref Port et al, 24; cited from earlier work
[2] = rat
[3] = assay type: physicochemical; conditions: 37°C, pH 7.4, 21 days, LLOQ 0.1 nmol Gd/g
[4] = Partition coefficient; assay type: physicochemical; conditions: pH 7.4, room temperature
[5] = cited from earlier work
[6] = assay type: physicochemical; conditions: after 3 days
[7] = formulation; ref Port et al, 24; cited from earlier work
[8] = ref Szomolanyi et al, 23; cited from earlier work
[9] = IV 0.1 mmol Gd/kg bw
[10] = Number of inner sphere water molecules; assay type: physicochemical; conditions: per Gd
[11] = ref Port et al, 24; cited from earlier work
[12] = pH 7.4; cited from earlier work
[13] = 7 days after single IV 0.1 mmol Gd/kg bw
[14] = 7 days after single IV 0.1 mmol Gd/kg bw, LLOQ 0.05

Compound: O=C([O-])CN1CCN(CC(=O)[O-])CCN([C@H](CO)[C@H](O)CO)CCN(CC(=O)[O-])CC1.[Gd+3] (racemic) [Gadobutrol, gadobutrol, reference compound]
- Osmolality at 37°C [1]: 1603∥ mosmol/kg H2O
- Gadolinium concentration, Bone marrow [2, 13]: 0.628 ± 0.420 nmol Gd/g wet tissue
- Gadolinium concentration, Carcass [2, 13]: 0.590 ± 0.162 nmol Gd/g wet tissue
- Gadolinium concentration, Heart [2, 13]: 0.127 ± 0.004 nmol Gd/g wet tissue
- Gadolinium concentration, Intestine [2, 13]: 0.453 ± 0.233 nmol Gd/g wet tissue
- Gadolinium concentration, Kidney [2, 13]: 19.6 ± 1.47 nmol Gd/g wet tissue
- Gadolinium concentration, Liver [2, 13]: 0.312 ± 0.054 nmol Gd/g wet tissue
- Gadolinium concentration, Lung [2, 13]: 0.218 ± 0.046 nmol Gd/g wet tissue
- Gadolinium concentration, Mesenterial lymph nodes [2, 13]: 0.631 ± 0.113 nmol Gd/g wet tissue
- Gadolinium concentration, Muscle [2, 13]: 0.074 ± 0.013 nmol Gd/g wet tissue
- Gadolinium concentration, Skin [2, 13]: 0.202 ± 0.057 nmol Gd/g wet tissue
- Gadolinium concentration, Spleen [2, 13]: 0.382 ± 0.101 nmol Gd/g wet tissue
- Gadolinium concentration, Stomach [2, 13]: 0.155 ± 0.010 nmol Gd/g wet tissue
- Gadolinium concentration, Blood [2, 14]: <0.05* nmol Gd/g wet tissue
- Gadolinium concentration, Brain [2, 14]: <0.05* nmol Gd/g wet tissue
- Gadolinium concentration, Bone ([2]; femur, 7 days after single IV 0.1 mmol Gd/kg bw): 1.013 ± 0.767 nmol Gd/g wet tissue
- Amount of Gd recovered in Feces, 0–5 d ([2]; in vivo, iv): 1.44% ± 1.2%
- Amount of Gd recovered in Urine, 0–1 d ([2]; in vivo, iv): 99.2% ± 1.5%
- Amount of Gd recovered in Urine, 0–5 d ([2]; in vivo, iv): 100% ± 1.6%
- Total recovery of Gd, 0–7 d ([2]; in vivo, iv): 102% ± 4.1%
- Gd release after 21 days in human serum (below LLOQ) [3]: < 0.1 nmol Gd/g
- Log P (1-Butanol/Buffer) [4]: −2.22
- r1-Relaxivity in Human Plasma at 37°C, 1.5 T ([5]; ref Szomolanyi et al, 23, listed as gadobutrol): 4.8 mM⁻¹ s⁻¹
- r1-Relaxivity in Human Plasma at 37°C, 1.5 T ([5]; ref Szomolanyi et al, 23): 4.8 ± 0.1§ mM^−1 s^−1
- Decrease of the T1 relaxation rates (R1) in zinc transmetallation assay [6]: no change
- Viscosity at 37°C [7]: 5.0∥ mPa·s
- r1-Relaxivity in Human Plasma at 37°C, 3.0 T [8]: 5.0 ± 0.6§ mM^−1 s^−1
- AUC^∞ ([9]; rat plasma): 234 ± 10 (4.3%) μmol·h/L
- γ-AUC ([9]; rat plasma): 1.1 % of AUC^∞
- γ-AUC ([9]; rat plasma, listed as gadobutrol): 1 % of AUC^∞
- Clplasma ([9]; rat): 0.43 ± 0.02 (4.3%) L/h/kg
- Vss ([9]; rat): 0.29 ± 0.03 (9.1%) L/kg
- β t1/2 ([9]; rat, 3-compartment model): 22 ± 0.69 (3.2%) min
- γ t1/2 ([9]; rat, 3-compartment model): 13 ± 2.0 (16%) h
- α t1/2 ([9]; rat, 3-compartment model, mean estimate ± SD (CV%)): 2.5 ± 1.1 (42%) min
- No. Inner Sphere Water Molecules (q) [10]: q = 1

Compound: CNC[C@H](O)[C@@H](O)[C@H](O)[C@H](O)CO.CNC[C@H](O)[C@@H](O)[C@H](O)[C@H](O)CO.O=C([O-])CN(CCN(CC(=O)[O-])CC(=O)O)CCN(CC(=O)[O-])CC(=O)O.[Gd+3] [Gadopentetate dimeglumine, gadopentetate dimeglumine]
- Decrease of the T1 relaxation rates (R1) in zinc transmetallation assay [6]: 66%

Compound: CNC[C@H](O)[C@@H](O)[C@H](O)[C@H](O)CO.O=C([O-])CN1CCN(CC(=O)[O-])CCN(CC(=O)O)CCN(CC(=O)[O-])CC1.[Gd+3] [Gadoterate meglumine, gadoterate meglumine]
- Osmolality at 37°C [1]: 1350∥ mosmol/kg H2O
- r1-Relaxivity in Human Plasma at 37°C, 1.5 T ([5]; ref Szomolanyi et al, 23, listed as gadoterate meglumine): 3.3 mM⁻¹ s⁻¹
- r1-Relaxivity in Human Plasma at 37°C, 1.5 T ([5]; ref Szomolanyi et al, 23): 3.3 ± 0.1§ mM^−1 s^−1
- Decrease of the T1 relaxation rates (R1) in zinc transmetallation assay [6]: no change
- Viscosity at 37°C [7]: 2.0∥ mPa·s
- Log P (1-Butanol/Buffer) [11]: −2.87∥
- r1-Relaxivity in Human Plasma at 37°C, 3.0 T [8]: 3.0 ± 0.1§ mM^−1 s^−1
- No. Inner Sphere Water Molecules (q) [10]: q = 1

Compound: CC(O)CN1CCN(CC(=O)[O-])CCN(CC(=O)[O-])CCN(CC(=O)[O-])CC1.[Gd+3] (centres unmarked) [Gadoteridol]
- Osmolality at 37°C [1]: 630∥ mosmol/kg H2O
- r1-Relaxivity in Human Plasma at 37°C, 1.5 T ([5]; ref Szomolanyi et al, 23): 3.8 ± 0.1§ mM^−1 s^−1
- Viscosity at 37°C [7]: 1.3∥ mPa·s
- Log P (1-Butanol/Buffer) [11]: −1.98∥
- r1-Relaxivity in Human Plasma at 37°C, 3.0 T [8]: 3.3 ± 0.1§ mM^−1 s^−1
- No. Inner Sphere Water Molecules (q) [10]: q = 1

Compound: Gadopiclenol
- log Kcond [12]: 15.5

Compound: Gd-PCTA
- log Kcond [12]: 15.5
